From ChEMBL document CHEMBL4304782, “Antioxidant, Anti-inflammatory, and Neuroprotective Effects of Novel Vinyl Sulfonate Compounds as Nrf2 Activator” (ACS Med Chem Lett, 2019)

Molecular target: T1, Nuclear factor erythroid 2-related factor 2 (Homo sapiens, UniProt Q16236)
T1 sequence (Q16236 whole entry): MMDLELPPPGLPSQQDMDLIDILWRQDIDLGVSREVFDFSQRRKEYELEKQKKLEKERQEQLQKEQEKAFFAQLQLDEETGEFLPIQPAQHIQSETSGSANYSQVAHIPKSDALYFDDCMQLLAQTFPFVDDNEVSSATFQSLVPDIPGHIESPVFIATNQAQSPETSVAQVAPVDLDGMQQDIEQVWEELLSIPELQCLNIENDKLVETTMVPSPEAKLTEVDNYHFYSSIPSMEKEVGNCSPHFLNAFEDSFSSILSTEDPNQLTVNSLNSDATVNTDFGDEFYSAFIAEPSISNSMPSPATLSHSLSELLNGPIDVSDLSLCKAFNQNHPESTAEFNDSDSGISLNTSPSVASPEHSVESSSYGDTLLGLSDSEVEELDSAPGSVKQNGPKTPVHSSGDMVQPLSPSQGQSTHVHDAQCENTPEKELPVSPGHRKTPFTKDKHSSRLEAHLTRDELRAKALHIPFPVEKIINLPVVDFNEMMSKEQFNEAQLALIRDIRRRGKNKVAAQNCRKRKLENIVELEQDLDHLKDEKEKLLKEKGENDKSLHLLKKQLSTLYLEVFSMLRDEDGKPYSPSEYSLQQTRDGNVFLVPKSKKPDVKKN
Assay: Activation of ED-tagged Nrf2 in human U2OS cells co-expressing Keap1 assessed as induction of NRF2 translocation to nucleus after 6 hrs by beta-galactosidase based chemiluminescent assay
Assay type: cell-based

EC50: 6.35 µM
Structure (SMILES): COc1ccccc1NS(=O)(=O)/C=C/c1ccccc1Cl
